In ChEMBL document CHEMBL1201862, “PubChem BioAssay data set” (2004):
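Compound exposure: 48 hours, 5 concentrations, 96-well plates. GI50 is the concentration that inhibits growth by half.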 Active and inactive are the calls of the source. No stated cut-off is given here; in the data, active = GI50 up to about 1.1 µM and inactive = higher.

Experiments:
Assay in all cases: DTP human tumour cell line panel, 48 h
EKVX = tested on: EKVX
UO-31 = tested on: UO-31
HT-29 = tested on: HT-29
NCI-H460 = tested on: NCI-H460
UACC-62 = tested on: UACC-62
M14 = tested on: M14
PC-3 = tested on: PC-3
TK-10 = tested on: TK-10
OVCAR-8 = tested on: OVCAR-8
SN12C = tested on: SN12C
NCI-H23 = tested on: NCI-H23
HCT-116 = tested on: HCT-116
SF-539 = tested on: SF-539
MDA-N = tested on: MDA-N
SR = tested on: SR
HCC 2998 = tested on: HCC 2998
MDA-MB-231 = tested on: MDA-MB-231
HOP-62 = tested on: HOP-62
NCI-H522 = tested on: NCI-H522

Measured: GI50

COc1cc(/C=N/c2ccc(S(N)(=O)=O)cc2)cc(OC)c1
inactive: EKVX > 50 µM | UO-31 > 50 µM | HT-29 > 50 µM | NCI-H460 > 50 µM | UACC-62 > 50 µM | M14 > 50 µM | PC-3 > 50 µM | TK-10 > 50 µM | OVCAR-8 > 50 µM | SN12C > 50 µM | NCI-H23 > 50 µM | HCT-116 19.8 µM | SF-539 25.3 µM | MDA-N 26.5 µM | SR 16.4 µM | HCC 2998 > 50 µM | MDA-MB-231 20.1 µM | HOP-62 > 50 µM

Cc1cnc2c(c1)C(=O)N(c1ccc(Br)cc1)S2(=O)=O
inactive: EKVX 35.6 µM | UO-31 > 100 µM | HT-29 > 100 µM | NCI-H460 > 100 µM | NCI-H522 19.5 µM | UACC-62 > 100 µM | M14 > 100 µM | PC-3 > 100 µM | TK-10 > 100 µM | OVCAR-8 > 100 µM | SN12C > 100 µM | NCI-H23 > 100 µM | HCT-116 > 100 µM | SF-539 > 100 µM | MDA-N > 100 µM | HCC 2998 > 100 µM | MDA-MB-231 > 100 µM | HOP-62 50.5 µM

C=C(C)C1Cc2c(cc(O)c3c(=O)c4c(oc23)C(O)Oc2cc(OC)c(OC)cc2-4)O1 (configuration not stated)
inactive: EKVX > 10 µM | UO-31 > 10 µM | HT-29 > 10 µM | NCI-H460 > 10 µM | UACC-62 > 10 µM | M14 > 10 µM | PC-3 > 10 µM | TK-10 > 10 µM | OVCAR-8 > 10 µM | SN12C > 10 µM | NCI-H23 > 10 µM | HCT-116 > 10 µM | SF-539 > 10 µM | MDA-N > 10 µM | SR > 10 µM | HCC 2998 > 10 µM | MDA-MB-231 > 10 µM | HOP-62 > 10 µM

CC(C)(C)OC(=O)NCCCCC(N)NC(=O)c1ccccc1 (configuration not stated)
inactive: EKVX > 100 µM | UO-31 > 100 µM | HT-29 > 100 µM | NCI-H460 > 100 µM | NCI-H522 > 100 µM | UACC-62 > 100 µM | M14 > 100 µM | PC-3 > 100 µM | TK-10 > 100 µM | OVCAR-8 > 100 µM | SN12C > 100 µM | NCI-H23 > 100 µM | HCT-116 > 100 µM | SF-539 > 100 µM | MDA-N > 100 µM | HCC 2998 > 100 µM | MDA-MB-231 > 100 µM | HOP-62 > 100 µM

COC(=O)C1=COC(OC2OC(CO)C(O)C(O)C2O)C2C3CN4CCc5c([nH]c6ccccc56)C4(CC12)O3 (configuration not stated)
inactive: EKVX > 100 µM | UO-31 > 100 µM | HT-29 > 100 µM | NCI-H460 > 100 µM | UACC-62 > 100 µM | M14 > 100 µM | PC-3 > 100 µM | TK-10 > 100 µM | OVCAR-8 > 100 µM | SN12C > 100 µM | NCI-H23 > 100 µM | HCT-116 > 100 µM | SF-539 > 100 µM | MDA-N > 100 µM | SR > 100 µM | MDA-MB-231 > 100 µM | HOP-62 > 100 µM

Cc1ccc(S(=O)(=O)N(CC(O)COc2ccccc2)c2ccc(F)cc2F)cc1 (configuration not stated)
inactive: EKVX 14.7 µM | UO-31 13.9 µM | HT-29 14.9 µM | NCI-H460 15.8 µM | UACC-62 13.5 µM | M14 17.3 µM | PC-3 12.8 µM | TK-10 21.5 µM | OVCAR-8 17.3 µM | SN12C 15.3 µM | NCI-H23 13.9 µM | SF-539 16.4 µM | MDA-N 15.5 µM | SR 22.5 µM | HCC 2998 14.1 µM | MDA-MB-231 17.4 µM | HOP-62 15.5 µM

NC(Cc1ccc(S(=O)(=O)O)cc1)C(=O)NC(Cc1ccc(S(=O)(=O)O)cc1)C(=O)NC(Cc1ccc(S(=O)(=O)O)cc1)C(=O)O (configuration not stated)
inactive: EKVX > 100 µM | UO-31 > 100 µM | HT-29 > 100 µM | NCI-H460 > 100 µM | NCI-H522 > 100 µM | UACC-62 > 100 µM | M14 > 100 µM | PC-3 > 100 µM | TK-10 > 100 µM | OVCAR-8 > 100 µM | SN12C > 100 µM | NCI-H23 > 100 µM | HCT-116 > 100 µM | SF-539 > 100 µM | MDA-N > 100 µM | HCC 2998 > 100 µM | MDA-MB-231 > 100 µM | HOP-62 > 100 µM

CC1=C(C)C(=O)C(C2=CC(=O)C=CC2=O)=C(C2=CC(=O)C=CC2=O)C1=O
inactive: EKVX > 54.1 µM | UO-31 41.7 µM | HT-29 > 72.6 µM | NCI-H460 > 100 µM | NCI-H522 21.2 µM | UACC-62 39.6 µM | M14 > 76.9 µM | PC-3 62.8 µM | TK-10 > 100 µM | OVCAR-8 36.6 µM | SN12C 31 µM | NCI-H23 > 100 µM | HCT-116 31.8 µM | SF-539 27.3 µM | MDA-N 26.9 µM | HCC 2998 > 100 µM | MDA-MB-231 18.4 µM | HOP-62 > 100 µM
